Measurements reported in patent US8318697B2, “Prophylactic and therapeutic treatment of infectious and other diseases with mono- and disaccharide-based compounds” (Corixa Corporation, priority 2000, dated 2012).
Read-outs that look alike come from different tables or passages of the source.

How the values were obtained:
human whole blood = format: cell-based; conditions: for IL10/TNFα cba: ratio of IL-10 to TNF; for TNFα/IL10 cba: ratio of TNF to IL-10
[1] = system: L. monocytogenes 10403 serotype; assay: Murine Listeria monocytogenes challenge model; format: in vivo, Mice; conditions: 1 μg intravenously in 0.2% TEOA, challenge two days later; FIGS. 14-17
Protocol: This example provides experiments evaluating the induction of non-specific resistance in the murine Listeria monocytogenes challenge model performed using various AGPs and MPL. Mice (5 per group) were treated intravenously with the 1 μg of an AGP or MPL solubilized in 0.2% TEOA. Two days later the mice were challenged intravenously with a ˜10^5 L. monocytogenes 10403 serotype (provided by M. L. Gray, Montana State University, Bozeman, Mont.). Two days after the challenge, the mice were sacrificed and the number of colony forming units (CFUs) in the spleens of individual mice were determined by plating 10-fold serial dilutions of splenic homogenates on tryptic soy agar plates. The degree of protection afforded by a given AGP or MPL was calculated by subtracting the average number of bacteria per spleen (log 10 value) in the group of mice treated with a given compound, from the average number of bacteria per spleen (log 10 value) in a control group that was “sham” treated with vehicle (0.2% TEOA) prior to challenge with L. monocytogenes.

[2] = system: Ogawa P. gingivalis LPS stimulated whole blood cells; assay: Inhibition of LPS-induced cytokines in whole blood; format: cell-based, human; conditions: 10, 5, 2.5 ug/mL
Text: Table 4 provides the maximum levels of IL-4, IL-2 and IL-5 obtained, as well as ratios of TNF to IL-10, and ratios of IL-10 to TNF. Inhibition data for IL-8, reported as a percentage, are also provided on the right hand side of Table 4. For example, 90% inhibition would calculate to a 90% reduction of cytokine levels. MIP-1β results were similar. […]

influenza A/HK/68 = assay: Lethal influenza challenge model, intranasal monotherapy; conditions: i.n.; FIG. 11, FIG. 13
Protocol: A dose of 20 μg MonoPhosphoryl Lipid A (MPL) was given to groups of female BALB/c mice by intranasal (i.n.) administration either 2 days prior to or the day of lethal influenza challenge. All mice were challenged with approximately 2 LD50 infectious influenza A/HK/68 administered i.n. Mortality was monitored for 21 days following influenza challenge.
A dose of 20 μg L-Seryl AGPs (RC-526, RC-554, RC-555, RC-537, RC-527, RC-538, RC-560, RC-512 and vehicle only) was given to groups of female BALB/c mice by intranasal (i.n.) administration 2 days prior to or the day of lethal influenza challenge. All mice were challenged with approximately 2 LD50 infectious influenza A/HK/68 administered i.n. The disease index (ruffled fur, hunched posture and labored breathing) was monitored during days 4-19 following influenza challenge. Weight loss and mortality were monitored for 21 days following influenza challenge.

Row | SMILES | IL10/TNFα cba (human whole blood; donor 1) | TNFα/IL10 cba (human whole blood; donor 1) | IL10/TNFα cba (human whole blood; donor 2) | TNFα/IL10 cba (human whole blood; donor 2) | protection against L. monocytogenes challenge (reduction of log 10 bacteria per spleen vs vehicle) [1] | % inhib. LPS IL-8 [2] [%] | protection against influenza challenge, compared by secondary fatty acid chains (influenza A/HK/68)
1 | CCCCCCCCCCC[C@H](CC(=O)N[C@H](CO)CCO[C@@H]1O[C@H](CO)[C@@H](OP(=O)(O)O)[C@H](OC(=O)C[C@@H](CCCCCCCCCCC)OC(=O)CCCCCCCCC)[C@H]1NC(=O)C[C@@H](CCCCCCCCCCC)OC(=O)CCCCCCCCC)OC(=O)CCCCCCCCC.CCN(CC)CC [RC-540] | 5.5 | 0.2 | 5.2 | 0.2 | protection that was equal to or greater than that provided by MPL |  | 
2 | CCCCCCCCCCC[C@H](CC(=O)NCCO[C@@H]1O[C@H](CO)[C@@H](OP(=O)(O)O)[C@H](OC(=O)C[C@@H](CCCCCCCCCCC)OC(=O)CCCCCCCCC)[C@H]1NC(=O)C[C@@H](CCCCCCCCCCC)OC(=O)CCCCCCCCC)OC(=O)CCCCCCCCC.CCN(CC)CC [RC-524] | 1.8 | 0.2 | 4 | 0.3 | protection that was equal to or greater than that provided by MPL |  | 
3 | CCCCCCCCCCC[C@H](CC(=O)N[C@H]1[C@H](OC[C@H](NC(=O)C[C@@H](CCCCCCCCCCC)OC(=O)CCCCCCCCC)C(N)=O)O[C@H](CO)[C@@H](OP(=O)(O)O)[C@@H]1OC(=O)C[C@@H](CCCCCCCCCCC)OC(=O)CCCCCCCCC)OC(=O)CCCCCCCCC.CCN(CC)CC [RC-522] | 2.7 | 0.4 |  |  | protection that was equal to or greater than that provided by MPL |  | 
4 | CCCCCCCCCCC[C@H](CC(=O)N[C@H]1[C@H](OC[C@H](NC(=O)C[C@@H](CCCCCCCCCCC)OC(=O)CCCCC)C(=O)O)O[C@H](CO)[C@@H](OP(=O)(O)O)[C@@H]1OC(=O)C[C@@H](CCCCCCCCCCC)OC(=O)CCCCCCCCC)OC(=O)CCCCCCCCC.CCN(CC)CC [RC-569] |  |  |  |  |  | −13 | more protective than those having fewer
5 | CCCCCCCCCCC[C@H](CC(=O)N[C@H]1[C@H](OC[C@H](NC(=O)C[C@@H](CCCCCCCCCCC)OC(=O)CCCCCCCCC)C(=O)O)O[C@H](CO)[C@@H](OP(=O)(O)O)[C@@H]1OC(=O)C[C@@H](CCCCCCCCCCC)OC(=O)CCCCCCCCC)OC(=O)CCCCC.CCN(CC)CC [RC-565] |  |  |  |  |  | 16 | more protective than those having fewer
6 | CCCCCCCCCCC[C@H](CC(=O)N[C@@H](CCC(=O)O)CO[C@@H]1O[C@H](CO)[C@@H](OP(=O)(O)O)[C@H](OC(=O)C[C@@H](CCCCCCCCCCC)OC(=O)CCCCCCCCC)[C@H]1NC(=O)C[C@@H](CCCCCCCCCCC)OC(=O)CCCCCCCCC)OC(=O)CCCCCCCCC.CCN(CC)CC [RC-573] |  |  |  |  | protection that was equal to or greater than that provided by MPL |  | 
